In US8951964B2, “Phenanthridine macrocyclic hepatitis C serine protease inhibitors” (priority 2010, dated 2015):

Assays:
Assay type in all cases: cell-based, HCV
[1] = system: genotype 1a replicon (1a-H77); assay: 1a stable replicon (luciferase reporter); conditions: Hepatitis C virus, Huh-7, luciferase reporter, HuH-7 cells, 5% FBS
[2] = system: genotype 1b replicon (1b-Con1, 1b-N); assay: 1b stable replicon (luciferase reporter); conditions: Hepatitis C virus, HuH-7 cells, 5% FBS
[3] = system: genotype 1a transient replicon (1a-H77); assay: 1a transient replicon (luciferase reporter); conditions: Hepatitis C virus, HuH-7 cells, 5% FBS
[4] = system: genotype 1b transient replicon; assay: 1b transient replicon (luciferase reporter); conditions: Hepatitis C virus, HuH-7 cells, 5% FBS
[5] = system: genotype 3a NS3 gene in transient replicon; assay: 3a transient replicon (luciferase reporter); conditions: Hepatitis C virus, Huh-7, read-out: 3a transient replicon (nM)

Structure (SMILES) | EC50 [1] [nM] | EC50 [2] [nM] | EC50 [3] [nM] | EC50 [4] [nM] | EC50 [5] [nM]
Cn1ccc(C(=O)N[C@H]2CCCCC/C=C\[C@@H]3C[C@@]3(C(=O)NS(=O)(=O)C3(C)CC3)NC(=O)[C@@H]3C[C@@H](Oc4nc5cc(F)ccc5c5cc(F)ccc45)CN3C2=O)n1 | 0.1 to 0.5 | < 0.1 | 0.1 to 0.5 | 0.1 to 0.5 | 
Cc1cc(C(=O)N[C@H]2CCCCC/C=C\[C@@H]3C[C@@]3(C(=O)NS(=O)(=O)C3CC3)NC(=O)[C@@H]3C[C@@H](Oc4nc5cc(F)ccc5c5cc(OC(F)(F)F)ccc45)CN3C2=O)no1 |  |  | < 0.1 | 0.1 to 0.5 | > 1
Cc1cc(C(=O)N[C@H]2CCCCC/C=C\[C@@H]3C[C@@]3(C(=O)NS(=O)(=O)C3CC3)NC(=O)[C@@H]3C[C@@H](Oc4nc5ccccc5c5cc(OC(F)(F)F)ccc45)CN3C2=O)no1 |  |  | < 0.1 | 0.1 to 0.5 | > 1
Cn1ccc(C(=O)N[C@H]2CCCCC/C=C\[C@@H]3C[C@@]3(C(=O)NS(=O)(=O)C3CC3)NC(=O)[C@@H]3C[C@@H](Oc4nc5ccccc5c5cc(OC(F)(F)F)ccc45)CN3C2=O)n1 |  |  | 0.1 to 0.5 | 0.1 to 0.5 | > 1
CC1(S(=O)(=O)NC(=O)[C@@]23C[C@H]2/C=C\CCCCC[C@H](NC(=O)c2ccon2)C(=O)N2C[C@H](Oc4nc5ccccc5c5cc(F)ccc45)C[C@H]2C(=O)N3)CC1 |  |  | < 0.1 | 0.1 to 0.5 | 0.5 to 1
Cc1ccc(C(=O)N[C@H]2CCCCC/C=C\[C@@H]3C[C@@]3(C(=O)NS(=O)(=O)C3(C)CC3)NC(=O)[C@@H]3C[C@@H](Oc4nc5ccccc5c5cc(F)ccc45)CN3C2=O)o1 |  |  | 0.1 to 0.5 | 0.1 to 0.5 | 0.1 to 0.5
Cn1ccc(C(=O)N[C@H]2CCCCC/C=C\[C@@H]3C[C@@]3(C(=O)NS(=O)(=O)C3(C)CC3)NC(=O)[C@@H]3C[C@@H](Oc4nc5ccccc5c5cccc(F)c45)CN3C2=O)n1 | < 0.1 | 0.1 to 0.5 | 0.1 to 0.5 | 0.1 to 0.5 | 
Cn1ccc(C(=O)N[C@H]2CCCCC/C=C\[C@@H]3C[C@@]3(C(=O)NS(=O)(=O)C3CC3)NC(=O)[C@@H]3C[C@@H](Oc4nc5cc(OC(F)(F)F)ccc5c5ccccc45)CN3C2=O)n1 | < 0.1 | < 0.1 | < 0.1 | 0.1 to 0.5 | 
Cc1ccc(C(=O)N[C@H]2CCCCC/C=C\[C@@H]3C[C@@]3(C(=O)NS(=O)(=O)C3(C)CC3)NC(=O)[C@@H]3C[C@@H](Oc4nc5cc(F)ccc5c5cc(F)ccc45)CN3C2=O)s1 |  |  | 0.1 to 0.5 | 0.1 to 0.5 | > 1
CC1(S(=O)(=O)NC(=O)[C@@]23C[C@H]2/C=C\CCCCC[C@H](NC(=O)c2ccn(C(F)F)n2)C(=O)N2C[C@H](Oc4nc5cc(F)ccc5c5ccc(OC(F)(F)F)cc45)C[C@H]2C(=O)N3)CC1 |  |  | 0.1 to 0.5 | 0.1 to 0.5 | > 1
Cn1ccc(C(=O)N[C@H]2CCCCC/C=C\[C@@H]3C[C@@]3(C(=O)NS(=O)(=O)C3(C)CC3)NC(=O)[C@@H]3C[C@@H](Oc4nc5ccccc5c5ccc(OC(F)(F)F)cc45)CN3C2=O)n1 |  |  | 0.1 to 0.5 | 0.1 to 0.5 | 0.1 to 0.5
Cc1ccc(C(=O)N[C@H]2CCCCC/C=C\[C@@H]3C[C@@]3(C(=O)NS(=O)(=O)C3(C)CC3)NC(=O)[C@@H]3C[C@@H](Oc4nc5ccccc5c5cc(F)ccc45)CN3C2=O)s1 |  |  | 0.1 to 0.5 | 0.1 to 0.5 | > 1
Cn1ccc(C(=O)N[C@H]2CCCCC/C=C\[C@@H]3C[C@@]3(C(=O)NS(=O)(=O)C3(C)CC3)NC(=O)[C@@H]3C[C@@H](Oc4nc5cc(F)ccc5c5ccc(OC(F)(F)F)cc45)CN3C2=O)n1 |  |  | < 0.1 | 0.1 to 0.5 | 0.1 to 0.5
Cc1cc(C(=O)N[C@H]2CCCCC/C=C\[C@@H]3C[C@@]3(C(=O)NS(=O)(=O)C3(C)CC3)NC(=O)[C@@H]3C[C@@H](Oc4nc5cc(F)ccc5c5ccc(OC(F)(F)F)cc45)CN3C2=O)no1 |  |  | < 0.1 | 0.1 to 0.5 | > 1
CC1(S(=O)(=O)NC(=O)[C@@]23C[C@H]2/C=C\CCCCC[C@H](NC(=O)c2ccn(C(F)F)n2)C(=O)N2C[C@H](Oc4nc5ccccc5c5ccc(OC(F)(F)F)cc45)C[C@H]2C(=O)N3)CC1 |  |  | 0.1 to 0.5 | 0.1 to 0.5 | > 1
Cc1cc(C(=O)N[C@H]2CCCCC/C=C\[C@@H]3C[C@@]3(C(=O)NS(=O)(=O)C3(C)CC3)NC(=O)[C@@H]3C[C@@H](Oc4nc5ccccc5c5ccc(OC(F)(F)F)cc45)CN3C2=O)no1 |  |  | < 0.1 | 0.1 to 0.5 | > 1
Cc1ccc(C(=O)N[C@H]2CCCCC/C=C\[C@@H]3C[C@@]3(C(=O)NS(=O)(=O)C3(C)CC3)NC(=O)[C@@H]3C[C@@H](Oc4nc5ccccc5c5ccc(OC(F)(F)F)cc45)CN3C2=O)o1 |  |  | 0.1 to 0.5 | 0.1 to 0.5 | < 0.1
CC1(S(=O)(=O)NC(=O)[C@@]23C[C@H]2/C=C\CCCCC[C@H](NC(=O)[C@H](O)C(F)(F)F)C(=O)N2C[C@H](Oc4nc5cc(F)ccc5c5cc(F)ccc45)C[C@H]2C(=O)N3)CC1 |  |  | < 0.1 | < 0.1 | > 1

Structure (SMILES) | EC50 [1] [nM] | EC50 [2] [nM] | EC50 [3] [nM] | EC50 [4] [nM] | EC50 [5] [nM]
CC1(S(=O)(=O)NC(=O)[C@@]23C[C@H]2/C=C\CCCCC[C@H](NC(=O)c2ccon2)C(=O)N2C[C@H](Oc4nc5cc(OC(F)(F)F)ccc5c5ccccc45)C[C@H]2C(=O)N3)CC1 |  |  | < 0.1 | < 0.1 | 0.1 to 0.5
CC1(S(=O)(=O)NC(=O)[C@@]23C[C@H]2/C=C\CCCCC[C@H](NC(=O)c2ccon2)C(=O)N2C[C@H](Oc4nc5cc(OC(F)(F)F)ccc5c5cc(F)ccc45)C[C@H]2C(=O)N3)CC1 |  |  | 0.1 to 0.5 | 0.1 to 0.5 | 0.1 to 0.5
Cc1ccc(C(=O)N[C@H]2CCCCC/C=C\[C@@H]3C[C@@]3(C(=O)NS(=O)(=O)C3(C)CC3)NC(=O)[C@@H]3C[C@@H](Oc4nc5cc(OC(F)(F)F)ccc5c5cc(F)ccc45)CN3C2=O)s1 |  |  | 0.5 to 1 | 0.1 to 0.5 | 0.1 to 0.5
CC1(S(=O)(=O)NC(=O)[C@@]23C[C@H]2/C=C\CCCCC[C@H](NC(=O)[C@H](O)C(F)(F)F)C(=O)N2C[C@H](Oc4nc5cc(OC(F)(F)F)ccc5c5ccccc45)C[C@H]2C(=O)N3)CC1 |  |  | < 0.1 | < 0.1 | 0.5 to 1
Cn1ccc(C(=O)N[C@H]2CCCCC/C=C\[C@@H]3C[C@@]3(C(=O)NS(=O)(=O)C3(C)CC3)NC(=O)[C@@H]3C[C@@H](Oc4nc5cc(F)ccc5c5cc(OC(F)(F)F)ccc45)CN3C2=O)n1 |  |  | 0.1 to 0.5 | 0.1 to 0.5 | > 1
CC1(S(=O)(=O)NC(=O)[C@@]23C[C@H]2/C=C\CCCCC[C@H](NC(=O)c2ccon2)C(=O)N2C[C@H](Oc4nc5cc(F)ccc5c5cc(OC(F)(F)F)ccc45)C[C@H]2C(=O)N3)CC1 |  |  | < 0.1 | 0.1 to 0.5 | > 1
CC1(S(=O)(=O)NC(=O)[C@@]23C[C@H]2/C=C\CCCCC[C@H](NC(=O)c2ccn(C(F)F)n2)C(=O)N2C[C@H](Oc4nc5cc(F)ccc5c5cc(OC(F)(F)F)ccc45)C[C@H]2C(=O)N3)CC1 |  |  | 0.1 to 0.5 | 0.1 to 0.5 | > 1
COc1ccc2c(c1)nc(O[C@@H]1C[C@H]3C(=O)N[C@]4(C(=O)NS(=O)(=O)C5(C)CC5)C[C@H]4/C=C\CCCCC[C@H](NC(=O)c4ccn(C)n4)C(=O)N3C1)c1ccc(F)cc12 |  |  | 0.1 to 0.5 | 0.1 to 0.5 | 0.1 to 0.5
COc1ccc2c(c1)nc(O[C@@H]1C[C@H]3C(=O)N[C@]4(C(=O)NS(=O)(=O)C5(C)CC5)C[C@H]4/C=C\CCCCC[C@H](NC(=O)c4ccon4)C(=O)N3C1)c1ccc(F)cc12 |  |  | < 0.1 | 0.1 to 0.5 | 0.1 to 0.5
COc1ccc2c(c1)nc(O[C@@H]1C[C@H]3C(=O)N[C@]4(C(=O)NS(=O)(=O)C5(C)CC5)C[C@H]4/C=C\CCCCC[C@H](NC(=O)c4ccn(C(F)F)n4)C(=O)N3C1)c1ccc(F)cc12 |  |  | 0.1 to 0.5 | 0.1 to 0.5 | 0.5 to 1
CC1(S(=O)(=O)NC(=O)[C@@]23C[C@H]2/C=C\CCCCC[C@H](NC(=O)[C@H](O)C(F)(F)F)C(=O)N2C[C@H](Oc4nc5cc(OC(F)(F)F)ccc5c5ccc(F)cc45)C[C@H]2C(=O)N3)CC1 |  |  | < 0.1 | < 0.1 | > 1
Cc1ccc(C(=O)N[C@H]2CCCCC/C=C\[C@@H]3C[C@@]3(C(=O)NS(=O)(=O)C3(C)CC3)NC(=O)[C@@H]3C[C@@H](Oc4nc5cc(OC(F)(F)F)ccc5c5ccc(F)cc45)CN3C2=O)s1 |  |  | 0.1 to 0.5 | 0.1 to 0.5 | > 1
CC1(S(=O)(=O)NC(=O)[C@@]23C[C@H]2/C=C\CCCCC[C@H](NC(=O)c2ccon2)C(=O)N2C[C@H](Oc4nc5cc(OC(F)(F)F)ccc5c5ccc(F)cc45)C[C@H]2C(=O)N3)CC1 |  |  | < 0.1 | < 0.1 | 0.5 to 1
CC1(S(=O)(=O)NC(=O)[C@@]23C[C@H]2/C=C\CCCCC[C@H](NC(=O)c2cncs2)C(=O)N2C[C@H](Oc4nc5cc(OC(F)(F)F)ccc5c5ccc(F)cc45)C[C@H]2C(=O)N3)CC1 |  |  | 0.1 to 0.5 | 0.1 to 0.5 | > 1
Cc1cc(C(=O)N[C@H]2CCCCC/C=C\[C@@H]3C[C@@]3(C(=O)NS(=O)(=O)C3(C)CC3)NC(=O)[C@@H]3C[C@@H](Oc4nc5cc(OC(F)(F)F)ccc5c5ccc(F)cc45)CN3C2=O)no1 |  |  | 0.1 to 0.5 | 0.1 to 0.5 | > 1
Cn1ccc(C(=O)N[C@H]2CCCCC/C=C\[C@@H]3C[C@@]3(C(=O)NS(=O)(=O)C3(C)CC3)NC(=O)[C@@H]3C[C@@H](Oc4nc5cc(OC(F)(F)F)ccc5c5ccc(F)cc45)CN3C2=O)n1 |  |  | < 0.1 | < 0.1 | 0.1 to 0.5
CC1(S(=O)(=O)NC(=O)[C@@]23C[C@H]2/C=C\CCCCC[C@H](NC(=O)[C@H](O)C(F)(F)F)C(=O)N2C[C@H](Oc4nc5ccccc5c5cc(F)ccc45)C[C@H]2C(=O)N3)CC1 |  |  | < 0.1 | < 0.1 | > 1
